{
  "source": "patent US9155761B2",
  "about": "“Method for the treatment of cancer” (UNIVERSITY COLLEGE CORK, NATIONAL UNIVERSITY OF IRELAND, …, priority 2009, dated 2015)",
  "key": {"[1]": {"test_system": "OE21", "test": "Electron microscopy", "type": "cell-based, human", "conditions": "5-FU (25 μM), 48 hours", "procedure": "(§1) Cells were seeded on semi-porous membranes and incubated in 5-Fluoruracil (5-FU) for 48 hours. Cells were then fixed in a […] phosphate buffer (pH 7.4), containing 2.0% glutaraldehyde, at room temperature (RT) for 40 minutes. Cells were post-fixed in Osmium tetroxide (OsO4) at RT for 60 minutes, dehydrated in ascending grades of ethanol solutions (50%, 70%, 95%, 100% and 100% dry), prior to embedding in Araldite resin. Samples were subjected to a graded infiltration process with araldite (epoxy resin) before being set and sectioned. Representative areas were chosen for ultra-thin sectioning and samples were examined by electron microscopy."}, "[2]": {"test_system": "OE19", "test": "Electron microscopy", "type": "cell-based, human", "conditions": "5-FU (25 μM), 48 hours", "procedure": "as §1"}, "[3]": {"test_system": "OE21", "test": "Mitochondrial depolarization, JC-1 probe", "type": "cell-based, human", "conditions": "48 hour treatment", "procedure": "(§2) Mitochondrial membrane potential was determined using the JC-1 probe (Molecular Probes). In non-apoptotic cells, JC1 accumulates as aggregates in the mitochondria, which stain red (FL2; 590 nm). At the onset of apoptosis, a loss of mitochondrial membrane potential (ΔΨm) releases the aggregated JC1, returning it to its monomeric form, which stains the cytosol green (FL1; 530 nm). Therefore, fluorescence of the JC-1 probe in the FL-2 channel decreases as mitochondrial membrane integrity is lost, while the fluorescence in FL-1 channel increases. Cells were incubated in JC1 (7.5 μg/ml) at 37° C. for 15 mins, and washed prior to analysis by flow cytometry (FACScan, Becton Dickinson). Percentages denote the proportion of cells with depolarised mitochondria following 48 hour incubation with 5-Fluorouracil and represent at least three independent experiments."}, "[4]": {"test_system": "OE33", "test": "Mitochondrial depolarization, JC-1 probe", "type": "cell-based, human", "conditions": "48 hour treatment", "procedure": "as §2"}, "[5]": {"test_system": "OE19", "test": "Mitochondrial depolarization, JC-1 probe", "type": "cell-based, human", "conditions": "48 hour treatment", "procedure": "as §2"}, "[6]": {"test_system": "KYSE450", "test": "Mitochondrial depolarization, JC-1 probe", "type": "cell-based, human", "conditions": "48 hour treatment", "procedure": "as §2"}, "[7]": {"test_system": "LLC-Luc cells", "test": "FITC conjugated LC3 staining of LLC-Luc cells in vitro", "type": "cell-based", "conditions": "5-FU in vitro, 24 and 48 hours", "description": "FITC conjugated LC3 (a known marker of autophagy), forms a green punctate staining pattern in the cytoplasm when it accumulates in forming autophagosomes."}, "[8]": {"test_system": "LC3 in OE33 cells", "test": "LC3 / GFP-LC3 processing and distribution (Western blot, fluorescence microscopy)", "type": "cell-based, human", "procedure": "(§3) Total cellular protein extracts were prepared by scraping the cells into modified RIPA buffer (50 mM Tris HCl (pH 7.4), 150 mM NaCl, 0.25% Sodium deoxycholate, 1% Igepal, protease inhibitors 1 mM EDTA, 1× Pefabloc, 1× protease inhibitor cocktail, 1 mM Na3VO4, 1 mM NaF). All protein samples were separated by SDS-PAGE (10/12%) and electrophoretically transferred onto nitrocellulose membrane. All primary antibodies were incubated overnight at 4° C.: anti-phospho mTOR (Ser 2448) and anti-p70^S6K (Thr 389) (Cell Signaling Technologies, UK), anti-Beclin-1 (BD Biosciences, UK) and anti-LC3 (Medical & Biological Laboratories, Japan). The membranes were incubated with the relevant horseradish peroxidase conjugated secondary antibodies (DakoCytomation, Dublin) and detected by chemiluminescence (ECL Amersham, UK).\n(§4) To visualize and quantify the formation of autophagic vesicles, the green fluorescent protein (GFP)-LC3 (pEGFP-LC3) expression vector, kindly supplied by Dr. T. Yoshimori (National Institute of Genetics, Japan) was used. Cells were transiently transfected with the Amaxa electroporation system according to the supplier's protocol. Twenty-four hours post transfection, cells were treated with 5-FU and/or Cisplatin, fixed in 4% paraformaldehyde in PBS and transferred onto slides using a non-fluorescent fixative for analysis by fluorescence microscopy. Alternatively, Western Blot analysis was used to assess the expression and processing of LC3. […] The membrane sequestered, lipid-conjugated form of LC3-II remains with the autophagosome membrane after the vesicle has formed, and levels of both isoform are detected by Western Blot. Transfection efficiency was consistent for a given cell line, OE33 and KYSE450 cell lines (˜60-70%) compared to OE19 and OE21 cell lines (˜30%)."}, "[9]": {"test_system": "LC3 in KYSE450 cells", "test": "LC3 / GFP-LC3 processing and distribution (Western blot, fluorescence microscopy)", "type": "cell-based, human", "procedure": "as §3, §4"}, "[10]": {"test_system": "LC3 in OE19 cells", "test": "LC3 / GFP-LC3 processing and distribution (Western blot, fluorescence microscopy)", "type": "cell-based, human", "procedure": "as §3, §4"}, "[11]": {"test_system": "LC3 in OE21 cells", "test": "LC3 / GFP-LC3 processing and distribution (Western blot, fluorescence microscopy)", "type": "cell-based, human", "procedure": "as §3, §4"}, "[12]": {"test_system": "OE21", "test": "Monodansylcadaverine (MDC)-labelled vacuoles", "type": "cell-based, human", "conditions": "25 μM", "procedure": "(§5) MDC is an autofluorescent weak base that accumulates in acidic lysosomal vacuoles, showing high selectivity for autophagosomes, due to the high level of unhydrolyzed membrane lipids from engulfed organelles, which enhance MDC fluorescence. Cells were incubated with 0.1 mM MDC in PBS at 37° C. for 10 minutes (Biederbick et al., 1995), washed and immediately analyzed by fluorescent microscopy."}, "[13]": {"test_system": "OE33", "test": "Monodansylcadaverine (MDC)-labelled vacuoles", "type": "cell-based, human", "conditions": "25 μM", "procedure": "as §5"}, "[14]": {"test_system": "OE19", "test": "Monodansylcadaverine (MDC)-labelled vacuoles", "type": "cell-based, human", "conditions": "25 μM", "procedure": "as §5"}, "[15]": {"test_system": "KYSE450", "test": "Monodansylcadaverine (MDC)-labelled vacuoles", "type": "cell-based, human", "conditions": "25 μM", "procedure": "as §5"}, "[16]": {"test_system": "CT26 (Colorectal carcinoma cells)", "test": "CT26 colorectal carcinoma model, intratumoural 5-FU / Lithium Chloride", "type": "in vivo, mice", "conditions": "intratumoural thrice weekly; Lithium Chloride 200 mg/kg; 5-FU 20 mg/kg"}, "[17]": {"test_system": "OE21", "procedure": "Morphological features of cells treated with 5-fluorouracil (5-FU)/cisplatin, without and with 3-MA, LY294002, Bafilomycin, Lithium chloride, rapamycin or HA14-I were examined by light microscopy. Morphologies of treated cells were examined 24 and 48 hours post treatment, treatment times are referred to in figure legends. Aliquots of vehicle control and drug treated cells were cytospun onto glass slides and stained with Rapi-Diff (Braidwood laboratories, UK). The extent of apoptotic and non-apoptotic cell death was determined by counting the cells in at least three fields of view per slide, with an average of ˜100 cells per field. Apoptotic cell death is characterized by the presence of two or more of the following morphological features: cell shrinkage, chromatin condensation, DNA degradation and fragmentation into ‘apoptotic bodies’, within an intact plasma membrane. Autophagic cell death was identified by clear elevation of cytoplasmic vesicles, loss of cytoplasmic material, pyknosis of the nuclear material and an intact nuclear membrane. Cytospin images are representative of at least three independent experiments."}, "[18]": {"conditions": "5-FU or cisplatin (images not shown)"}},
  "note": "“Also recorded” adds a separate entry of the source.",
  "data": [
    {"smiles": "O=c1[nH]cc(F)c(=O)[nH]1", "note": "[5-FU, 5-fluorouracil]", "values": [
      {"measurement": "ultra structural features (electron microscopy)", "setting": "[1]", "result": "morphological changes consistent with classical apoptotic cell death"},
      {"measurement": "ultra structural features (electron microscopy)", "setting": "[2]", "result": "numerous cytoplasmic vacuoles are evident"},
      {"measurement": "mitochondrial depolarization (JC-1)", "setting": "[3]", "result": "significant mitochondrial depolarization"},
      {"measurement": "mitochondrial depolarization (JC-1)", "setting": "[4]", "result": "mitochondrial depolarization"},
      {"measurement": "mitochondrial depolarization (JC-1)", "setting": "[5]", "result": "do not show caspase-3 activity or mitochondrial membrane depolarization"},
      {"measurement": "mitochondrial depolarization (JC-1)", "setting": "[6]", "result": "do not show caspase-3 activity or mitochondrial membrane depolarization; also recorded: do not exhibit membrane depolarization"},
      {"measurement": "autophagy (FITC conjugated LC3 punctate staining)", "setting": "[7]", "result": "the extent of autophagy is greatly enhanced"},
      {"measurement": "GFP-LC3 distribution (fluorescence microscopy)", "setting": "[8]; [18]", "result": "Diffuse cytoplasmic localization of GFP-LC3"},
      {"measurement": "induction of autophagosome-associated LC3II band (Western blot)", "setting": "[8]; 24 and 48 hours", "result": "no induction of a lower autophagosome-associated LC3II-band"},
      {"measurement": "GFP-LC3 distribution (fluorescence microscopy)", "setting": "[9]; 5-FU or cisplatin (data not shown)", "result": "Redistribution of GFP-LC3 from a diffuse cytosolic to a punctate autophagosome-associated pattern"},
      {"measurement": "LC3II levels (Western blot, GFP-LC3)", "setting": "[9]; 5-FU, 24 hours", "result": "significant increase in LC3II levels"},
      {"measurement": "GFP-LC3 distribution (fluorescence microscopy)", "setting": "[10]; 5-FU (25 & 50 μM) or cisplatin (10 & 25 μM)", "result": "Redistribution of GFP-LC3 from a diffuse cytosolic to a punctate autophagosome-associated pattern; also recorded: bright punctate patterns of GFP-LC3 fluorescence"},
      {"measurement": "LC3II levels (Western blot, GFP-LC3)", "setting": "[10]; 5-FU, 24 hours", "result": "significant increase in LC3II levels"},
      {"measurement": "GFP-LC3 distribution (fluorescence microscopy)", "setting": "[11]; [18]", "result": "Diffuse cytoplasmic localization of GFP-LC3"},
      {"measurement": "induction of autophagosome-associated LC3II band (Western blot)", "setting": "[11]; 24 and 48 hours", "result": "no induction of a lower autophagosome-associated LC3II-band"},
      {"measurement": "MDC staining pattern", "setting": "[12]", "result": "MDC staining patterns are diffuse"},
      {"measurement": "MDC staining pattern", "setting": "[13]", "result": "MDC staining patterns are diffuse"},
      {"measurement": "MDC staining pattern", "setting": "[14]", "result": "accumulation of MDC (bright blue punctate staining) throughout the cytoplasm"},
      {"measurement": "MDC staining pattern", "setting": "[15]", "result": "accumulation of MDC (bright blue punctate staining) throughout the cytoplasm"},
      {"measurement": "survival: day beyond which no animal of the group was alive / final animal euthanized", "setting": "[16]", "result": 33, "unit": "days"},
      {"measurement": "cell death morphology", "setting": "[17]; 5-FU (50 μM) or cisplatin (40 μM), 48 hours", "result": "predominantly apoptotic cell death morphology"},
      {"measurement": "autophagic cells as a minor population", "setting": "[17]; 5-FU treated OE21 cells (FIG. 1c)", "result": 7, "unit": "%"}
    ]}
  ]
}
